Data reported in patent US20210139441A1 (priority 2017, published 2021).

Tested on: Crl:CD(SD) rats
Conditions: rat, in vivo

`FC(F)(F)[C@@H]1O[C@@H]1C(F)(F)F` [(2R,3S)-2,3-bis(trifluoromethyl)oxirane, Cis-2,3-bis(trifluoromethyl)oxirane] was tested, and the “Fractional mortalities (number of deaths/number exposed)” value (both, Crl:CD(SD)) was 0/4, the “activity level and breathing rate” value was “decreased” and the bodyweight loss was 3 gram. The “clinical signs after exposure” value was “no abnormal clinical signs”, the “clinical signs of toxicity” value was “no clinical signs of toxicity” and the “startle response after exposure” value was “normal startle response”. For the same compound, the “startle response during the exposure” value was “normal startle responses” and the “state and response to sound stimulus” value was “prostrate and unresponsive to sound stimulus”.
